Laboratory results reported in US5919784A, “Heterocyclic aminomethyl compounds” (Adir Et Compagnie, priority 1996, dated 1999).
Where a name gives a salt, the structure may show the parent alone.

Columns and labels:
human D4.4 receptor = biological target: T1, human D4.4 receptor (Homo sapiens, UniProt P21917); experiment: Antagonism at human D4.4 receptors, [35S]GTPγS binding (G protein activation) stimulated by dopamine; type: biochemical; conditions: antagonism of dopamine-stimulated [35S]GTPγS binding; antagonist preincubated with fixed concentration of dopamine 30 min; CHO membranes; read-out: Kb (antagonist potency constant)
T1 construct: purchased Receptor Biology Inc. (Md., USA); host or cells: CHO cells (transfected), membranes
T1 sequence (P21917 1-419): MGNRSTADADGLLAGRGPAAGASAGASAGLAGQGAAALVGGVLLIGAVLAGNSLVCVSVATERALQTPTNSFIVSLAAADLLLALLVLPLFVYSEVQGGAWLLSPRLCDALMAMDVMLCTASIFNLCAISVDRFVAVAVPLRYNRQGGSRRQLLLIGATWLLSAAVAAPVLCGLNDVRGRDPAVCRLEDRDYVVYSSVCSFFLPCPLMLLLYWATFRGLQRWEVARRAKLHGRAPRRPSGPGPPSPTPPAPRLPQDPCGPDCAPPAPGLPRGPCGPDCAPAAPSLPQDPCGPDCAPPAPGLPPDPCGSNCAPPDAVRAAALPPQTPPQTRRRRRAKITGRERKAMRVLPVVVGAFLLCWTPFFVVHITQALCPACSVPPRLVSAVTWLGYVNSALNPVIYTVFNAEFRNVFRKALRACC
Experimental: The efficacy was determined by measuring the activation of G proteins by stimulating the binding of [^35 S]GTPγS (NEN, Les Ulis, France). The membranes prepared from CHO cells transfected with the human D4.4 receptor were purchased from Receptor Biology Inc. (Md., USA). The membranes (50 μg of membrane protein) are incubated in triplicate with 0.1 nM [^35 S]GTPγS and the cold ligand in a final volume of 0.5 ml for 20 min at 25° C. The incubation buffer contains 20 mM HEPES (pH 7.4), 3 μM GDP, 3 mM MgCl2 and 100 mM NaCl. At the end of the incubation, the incubation medium is filtered through WHATMAN GF/B filters impregnated with water and washed three times with 2 ml of cooled buffer. The radioactivity retained on the filters is determined by liquid scintillation counting. The binding isotherms are analyzed by nonlinear regression using `PRISM` software (GraphPad Software Inc., S. Diego, USA) to determine EC50 and efficacy (Emax) values. The efficacy is expressed as a percentage of the stimulation of the binding of [^35 S]GTPγS induced by dopamine.
For the tests of antagonism, the membranes are preincubated with the antagonist at a fixed concentration of dopamine for 30 min before adding the [^35 S]GTPγS. […]
in which [Antagonist] is the antagonist concentration and EC50 is the EC50 determined in the absence of antagonist (dopamine alone).

D4 receptors = conditions: literature; cited from earlier work

Structure (SMILES)	Kb (human D4.4 receptor) [nM]	affinity for the D4 receptors (in words) (D4 receptors)
COc1ccccc1N1CCN(Cc2ccc3c(c2)sc(=O)n3C)CC1 [Example 1, 3-METHYL-6-[(4-(2-METHOXYPHENYL)-1-PIPERAZINYL)METHYL]-BENZOTHIAZOLINONE HYDROCHLORIDE]	2.39 ± 1.1	–
Cn1c(=O)sc2cc(CN3CCN(c4ccccc4F)CC3)ccc21 [Example 3, 3-METHYL-6-[(4-(2-FLUOROPHENYL)-1-PIPERAZINYL)METHYL]-BENZOTHIAZOLINONE]	16.1 ± 5	–
CN1CCN(C2=Nc3cc(Cl)ccc3Nc3ccccc32)CC1 [clozapine]	–	high affinity
NC[C@H](O)c1ccc(O)c(O)c1 [noradrenaline]	–	high affinity
